Laboratory results reported in US20200085791A1, “[(PHENYLSULFONYL)OCTAHYDRO-EPIMINOISOINDOL-YL](1H-1,2,3-TRIAZOL-5-YL)METHANONES” (Bayer Pharma Aktiengesellschaft, priority 2016, published 2020).

Target: T1, recombinant human AKR1C3 (Aldo-keto reductase family 1 member C3) (Homo sapiens, UniProt P42330)
T1 construct: GST (cleaved yes); made in house; host or cells: E. coli
T1 sequence (P42330 1-323): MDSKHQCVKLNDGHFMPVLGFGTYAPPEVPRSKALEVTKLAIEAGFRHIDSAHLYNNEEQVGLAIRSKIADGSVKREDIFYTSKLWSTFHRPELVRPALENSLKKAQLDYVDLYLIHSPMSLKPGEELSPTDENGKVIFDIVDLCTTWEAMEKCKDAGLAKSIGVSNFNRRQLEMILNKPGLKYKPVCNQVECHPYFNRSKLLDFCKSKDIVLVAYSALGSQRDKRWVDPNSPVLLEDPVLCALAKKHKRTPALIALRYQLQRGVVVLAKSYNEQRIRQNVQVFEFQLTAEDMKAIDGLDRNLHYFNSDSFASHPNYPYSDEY
Assay: In Vitro Assay 1: AKR1C3-inhibitory activity (Coumberone to Coumberol fluorescence assay)
Type: biochemical
Conditions: recombinant enzyme, Coumberone 0.3 μM, NADPH 10 μM, 15 min pre-incubation, 4-parameter fit; average or median values
Protocol: In Vitro Assay 1: AKR1C3-Inhibitory Activity
The AKR1C3-inhibitory activity of the substances of the present invention was measured in the AKR1C3 assay described in the paragraphs below.
Essentially, the enzyme activity is measured by quantification of the Coumberol from Coumberone (Halim, M., Yee, D. J., and Sames, D., J. AM. CHEM. SOC. 130, 14123-14128 (2008) and Yee, D. J., Balsanek, V., Bauman, D. R., Penning, T. M., and Sames, D., Proc. Natl. Acad. Sci. USA 103, 13304-13309 (2006)). In this test, the increase of the highly fluorescent Coumberol by NADPH- (nicotinamide adenine dinucleotide phosphate)-dependent reduction of the non-fluorescent Coumberone by AKR1C3 can be determined.
The enzyme used was recombinant human AKR1C3 (Aldo-keto reductase family 1 member C3) (GenBank Accession No. NM_003739). This was expressed in E. coli as GST (glutathione S transferase) fusion protein and purified by glutathione Sepharose affinity chromatography. The GST was removed by digestion with thrombin and subsequent size exclusion chromatography (Dufort, I., Rheault, P., Huang, X F., Soucy, P., and Luu-The, V., Endocrinology 140, 568-574 (1999)).
For the assay, 50 nl of a 100-fold concentrated solution of the test substance in DMSO were pipetted into a black low-volume 384-well microtiter plate (Greiner Bio-One, Frickenhausen, Germany), 2.5 μl of a solution of AKR1C3 in assay buffer [50 mM potassium phosphate buffer pH 7, 1 mM DTT, 0.0022% (w/v) Pluronic F-127, 0.01% BSA (w/v) and protease inhibitor cocktail (Complete, EDTA-free Protease Inhibitor Cocktail from Roche)] were added and the mixture was incubated for 15 min to allow pre-binding of the substances to the enzyme prior to the enzyme reaction. The enzyme reaction was then started by addition of 2.5 μl of a solution of NADPH (20 μM→final concentration in 5 μl of assay volume is 10 μM) and Coumberone (0.6 μM→final concentration in 5 μl of assay volume is 0.3 μM) in assay buffer, and the resulting mixture was incubated at […] for the reaction time of typically 90 min. The concentration of the AKR1C3 and the reaction time was adapted to the respective activity of the enzyme preparation and adjusted such that the assay was carried out in the linear range.
Typical AKR1C3 concentrations were in the region of 1 nM. The reaction was stopped by addition of 2.5 μl of a stop solution consisting of the inhibitor EM-1404 [F. Labrie et al. U.S. Pat. No. 6,541,463, 2003] (3 μM→final concentration in 7.5 μl of assay volume is 1 μM). The fluorescence of the Coumberole was then measured at 520 nm (excitation at 380 nm) using a suitable measuring instrument (Pherastar from BMG Labtechnologies). The intensity of the fluorescence was used as a measure of the amount of Coumberole formed and thus of the enzyme activity of AKR1C3. The data were normalized (enzyme reaction without inhibitor—0% inhibition; all other assay components, but no enzyme=100% inhibition).

SMILES: O=C(c1cnn[nH]1)N1C[C@@H]2[C@H](C1)[C@H]1CC[C@@H]2N1S(=O)(=O)c1ccc(Cl)cc1 [Example 31, {(3aR,4R,7S,7aS)-8-[(4-chorophenyl)sulfonyl]octahydro-2H-4,7-epiminoisoindol-2-yl}(1H-1,2,3-triazol-5-yl)methanone]
- IC50: 174 nM

SMILES: COc1cc(F)ccc1S(=O)(=O)N1[C@@H]2CC[C@H]1[C@@H]1CN(C(=O)c3cnn[nH]3)C[C@@H]12 [Example 65, {(3aR,4R,7S,7aS)-8-[(4-fluoro-2-methoxyphenyl)sulfonyl]octahydro-2H-4,7-epiminoisoindol-2-yl}(1H-1,2,3-triazol-5-yl)methanone]
- IC50: 45 nM

SMILES: N#Cc1ccccc1S(=O)(=O)N1[C@@H]2CC[C@H]1[C@@H]1CN(C(=O)c3cnn[nH]3)C[C@@H]12 [Example 44, 2-{[(3aR,4R,7S,7aS)-2-(1H-1,2,3-triazol-5-ylcarbonyl)octahydro-1H-4,7-epiminoisoindol-8-yl]sulfonyl}benzonitrile]
- IC50: 58 nM

SMILES: O=C(c1cnn[nH]1)N1[C@@H]2CC[C@H]1[C@H]1CN(S(=O)(=O)c3cc(Cl)cc(Cl)c3)C[C@H]12 [Example 28, {(3aR,4S,7R,7aS)-2-[(3,5-dichlorophenyl)sulfonyl]octahydro-1H-4,7-epiminoisoindol-8-yl}(1H-1,2,3-triazol-5-yl)methanone]
- IC50: 21 nM

SMILES: O=C(c1cnn[nH]1)N1C[C@@H]2[C@H](C1)[C@H]1CC[C@@H]2N1S(=O)(=O)c1ccc2c(c1)OCO2 [Example 57, [(3aR,4R,7S,7aS)-8-(1,3-benzodioxol-5-ylsulfonyl)octahydro-2H-4,7-epiminoisoindol-2-yl](1H-1,2,3-triazol-5-yl)methanone]
- IC50: 267 nM

SMILES: O=C(c1cnn[nH]1)N1C[C@@H]2[C@H](C1)[C@H]1CC[C@@H]2N1S(=O)(=O)c1cccc2nonc12 [Example 46, [(3aR,4R,7S,7aS)-8-(2,1,3-benzoxadiazol-4-ylsulfonyl)octahydro-2H-4,7-epiminoisoindol-2-yl](1H-1,2,3-triazol-5-yl)methanone]
- IC50: 59 nM

SMILES: O=C(c1c[nH]nn1)N1[C@@H]2CC[C@H]1[C@H]1CN(S(=O)(=O)c3cccc(S(F)(F)(F)(F)F)c3)C[C@H]12 [Example 10, [(3aR,4S,7R,7aS)-2-{[3-(pentafluoro-λ^6-sulfanyl)phenyl]sulfonyl}octahydro-1H-4,7-epiminoisoindol-8-yl](1H-1,2,3-triazol-4-yl)methanone]
- IC50: 121 nM

SMILES: O=C(c1cnn[nH]1)N1C[C@@H]2[C@H](C1)[C@H]1CC[C@@H]2N1S(=O)(=O)c1cccc(F)c1Cl [Example 64, {(3aR,4R,7S,7aS)-8-[(2-chloro-3-fluorophenyl)sulfonyl]octahydro-2H-4,7-epiminoisoindol-2-yl}(1H-1,2,3-triazol-5-yl)methanone]
- IC50: 12 nM

SMILES: O=C(c1c[nH]nn1)N1[C@@H]2CC[C@H]1[C@H]1CN(S(=O)(=O)c3ccccc3Cl)C[C@H]12 [Example 9, {(3aR,4S,7R,7aS)-2-[(2-chlorophenyl)sulfonyl]octahydro-1H-4,7-epiminoisoindol-8-yl}(1H-1,2,3-triazol-4-yl)methanone]
- IC50: 4 nM

SMILES: Nc1cccc(S(=O)(=O)N2[C@@H]3CC[C@H]2[C@@H]2CN(C(=O)c4cnn[nH]4)C[C@@H]23)c1 [Example 69, {(3aR,4R,7S,7aS)-8-[(3-aminophenyl)sulfonyl]octahydro-2H-4,7-epiminoisoindol-2-yl}(1H-1,2,3-triazol-5-yl)methanone]
- IC50: 735 nM

SMILES: O=C(c1c[nH]nn1)N1C[C@@H]2[C@H](C1)[C@@H]1CC[C@H]2N1S(=O)(=O)c1cccc(C(F)(F)F)c1 [Example 2, 1H-1,2,3-triazol-4-yl[(3aR,4S,7R,7aS)-8-{[3-(trifluoromethyl)phenyl]sulfonyl}octahydro-2H-4,7-epiminoisoindol-2-yl]methanone]
- IC50: 61 nM

SMILES: NC(=O)c1cccc(S(=O)(=O)N2[C@@H]3CC[C@H]2[C@@H]2CN(C(=O)c4cnn[nH]4)C[C@@H]23)c1 [Example 60, 3-{[(3aR,4R,7S,7aS)-2-(1H-1,2,3-triazol-5-ylcarbonyl)octahydro-1H-4,7-epiminoisoindol-8-yl]sulfonyl}benzamide]
- IC50: 501 nM

SMILES: COC(=O)c1cccc(S(=O)(=O)N2[C@@H]3CC[C@H]2[C@@H]2CN(C(=O)c4cnn[nH]4)C[C@@H]23)c1 [Example 56, methyl 3-{[(3aR,4R,7S,7aS)-2-(1H-1,2,3-triazol-5-ylcarbonyl)octahydro-1H-4,7-epiminoisoindol-8-yl]sulfonyl}benzoate]
- IC50: 798 nM

SMILES: COc1ccc(OC)c(S(=O)(=O)N2[C@@H]3CC[C@H]2[C@@H]2CN(C(=O)c4cnn[nH]4)C[C@@H]23)c1 [Example 36, {(3aR,4R,7S,7aS)-8-[(2,5-dimethoxyphenyl)sulfonyl]octahydro-2H-4,7-epiminoisoindol-2-yl}(1H-1,2,3-triazol-5-yl)methanone]
- IC50: 935 nM

SMILES: N#Cc1ccc(Cl)c(S(=O)(=O)N2[C@@H]3CC[C@H]2[C@@H]2CN(C(=O)c4cnn[nH]4)C[C@@H]23)c1 [Example 67, 4-chloro-3-{[(3aR,4R,7S,7aS)-2-(1H-1,2,3-triazol-5-ylcarbonyl)octahydro-1H-4,7-epiminoisoindol-8-yl]sulfonyl}benzonitrile]
- IC50: 33 nM

SMILES: O=C(c1c[nH]nn1)N1C[C@@H]2[C@H](C1)[C@@H]1CC[C@H]2N1S(=O)(=O)c1ccccc1Cl [Example 8, {(3aR,4S,7R,7aS)-8-[(2-chorophenyl)sulfonyl]octahydro-2H-4,7-epiminoisoindol-2-yl}(1H-1,2,3-triazol-4-yl)methanone]
- IC50: 7 nM

SMILES: O=C(c1cnn[nH]1)N1C[C@@H]2[C@H](C1)[C@H]1CC[C@@H]2N1S(=O)(=O)c1cccc([N+](=O)[O-])c1 [Example 33, {(3aR,4R,7S,7aS)-8-[(3-nitrophenyl)sulfonyl]octahydro-2H-4,7-epiminoisoindol-2-yl}(1H-1,2,3-triazol-5-yl)methanone]
- IC50: 174 nM

SMILES: O=C(c1c[nH]nn1)N1C[C@@H]2[C@H](C1)[C@@H]1CC[C@H]2N1S(=O)(=O)c1cccc(Cl)c1F [Example 6, {(3aR,4S,7R,7aS)-8-[(3-chloro-2-fluorophenyl)sulfonyl]octahydro-2H-4,7-epiminoisoindol-2-yl}(1H-1,2,3-triazol-4-yl)methanone]
- IC50: 31 nM

SMILES: O=C(c1c[nH]nn1)N1C[C@@H]2[C@H](C1)[C@@H]1CC[C@H]2N1S(=O)(=O)c1cccc(Cl)c1 [Example 3, {(3aR,4S,7R,7aS)-8-[(3-chlorophenyl)sulfonyl]octahydro-2H-4,7-epiminoisoindol-2-yl}(1H-1,2,3-triazol-4-yl)methanone]
- IC50: 20 nM

SMILES: Cc1cc(C)c(S(=O)(=O)N2[C@@H]3CC[C@H]2[C@@H]2CN(C(=O)c4cnn[nH]4)C[C@@H]23)c(C)c1 [Example 34, 1H-1,2,3-triazol-5-yl{(3aR,4R,7S,7aS)-8-[(2,4,6-trimethylphenyl)sulfonyl]octahydro-2H-4,7-epiminoisoindol-2-yl}methanone]
- IC50: 27 nM

SMILES: Cc1ccccc1S(=O)(=O)N1[C@@H]2CC[C@H]1[C@H]1CN(C(=O)c3c[nH]nn3)C[C@H]12 [Example 16, {(3aR,4S,7R,7aS)-8-[(2-methylphenyl)sulfonyl]octahydro-2H-4,7-epiminoisoindol-2-yl}(1H-1,2,3-triazol-4-yl)methanone]
- IC50: 5 nM

SMILES: O=C(c1cnn[nH]1)N1C[C@@H]2[C@H](C1)[C@H]1CC[C@@H]2N1S(=O)(=O)c1ccccc1[N+](=O)[O-] [Example 35, {(3aR,4R,7S,7aS)-8-[(2-nitrophenyl)sulfonyl]octahydro-2H-4,7-epiminoisoindol-2-yl}(1H-1,2,3-triazol-5-yl)methanone]
- IC50: 4 nM
